Measurements published in patent US11865126B2, “Method for treating anxiety disorders, headache disorders, and eating disorders with psilocybin” (priority 2019, dated 2024).

Test system: healthy subjects
Assay: CANTAB global composite score
Type: in vivo, human
Conditions: 10 mg vs placebo, Day 7
Description: The following list of outcome measures are non-exhaustive. • a. The short-term change from Baseline (Day −1 [Visit 2]) to Day 7 (Visit 5) in cognitive measures of attention, spatial and working memory and executive function was measured by a composite score of the CANTAB Panel (Spatial Working Memory [SWM], Rapid Visual Information Processing [RVP], Paired Associates Learning [PAL]). • b. The short-term change from Baseline (Day −1 [Visit 2]) to Day 7 (Visit 5) in Social Cognition Panel scales (Pictorial Empathy Test [PET], Reading the Mind in the Eyes Test [RMET], Toronto Empathy Questionnaire [TEQ], Social Value Orientation [SVO], Scale of Social Responsibility [SSR]). • c. The change from Baseline (Day −1 [Visit 2]) to Day 28 (Visit 6) in cognitive measures of attention, spatial and working memory and executive function as measured by a composite score of the CANTAB Panel (SWM, RVP, PAL). • d. […] Dose-related differences between cognitive effects of psilocybin at Baseline (Day −1 [Visit 2]), Day 7 (Visit 5) and Day 28 (Visit 6), as measured by a composite score of the CANTAB Panel (SWM, RVP, PAL). • f. Dose-related differences between psychological effects of psilocybin at Baseline (Day −1 [Visit 2]), Day 7 (Visit 5) and Day 84 (Visit 7), as measured by Social Cognition Panel scales (PET, RMET, TEQ, SVO, SSR). • g. […]

## CN(C)CCc1c[nH]c2cccc(OP(=O)(O)O)c12 [psilocybin]
  CANTAB global composite score, effect size: 0.53
